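Where inhibition never reached the appropriate level, the endpoint shown equals the highest concentration tested. Otherwise, values were interpolated linearly from a five-concentration, 48-hour dose response in 96-well plates. At the GI50, growth is halved. The concentration for full growth arrest is given as TGI.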
How the values were obtained:
Assay in all cases: NCI anticancer screen, dose series, 48 h
EKVX NSCLC = tested on: EKVX NSCLC
PC-3 prostate = tested on: PC-3 prostate
HT29 colon = tested on: HT29 colon
HL-60(TB) leukemia = tested on: HL-60(TB) leukemia
SK-OV-3 ovarian = tested on: SK-OV-3 ovarian
NCI-H226 lung = tested on: NCI-H226 lung
T-47D breast = tested on: T-47D breast
M14 melanoma = tested on: M14 melanoma
UACC-62 melanoma = tested on: UACC-62 melanoma
UO-31 renal = tested on: UO-31 renal
SN12C renal = tested on: SN12C renal
U251 CNS = tested on: U251 CNS
RPMI-8226 leukemia = tested on: RPMI-8226 leukemia
OVCAR-3 ovarian = tested on: OVCAR-3 ovarian
NCI-H460 lung = tested on: NCI-H460 lung
SK-MEL-5 melanoma = tested on: SK-MEL-5 melanoma
SF-539 CNS = tested on: SF-539 CNS
HS 578T breast = tested on: HS 578T breast
COLO 205 colon = tested on: COLO 205 colon
HOP-92 NSCLC = tested on: HOP-92 NSCLC
MOLT-4 leukemia = tested on: MOLT-4 leukemia
HOP-62 NSCLC = tested on: HOP-62 NSCLC
NCI/ADR-RES ovarian = tested on: NCI/ADR-RES ovarian
CCRF-CEM leukemia = tested on: CCRF-CEM leukemia
HCC-2998 colon = tested on: HCC-2998 colon
MDA-N = tested on: MDA-N
SF-295 CNS = tested on: SF-295 CNS
OVCAR-5 ovarian = tested on: OVCAR-5 ovarian
UACC-257 melanoma = tested on: UACC-257 melanoma
NCI-H23 lung = tested on: NCI-H23 lung
LOX IMVI melanoma = tested on: LOX IMVI melanoma
KM12 colon = tested on: KM12 colon
OVCAR-4 ovarian = tested on: OVCAR-4 ovarian
HCT-15 colon = tested on: HCT-15 colon
IGROV1 ovarian = tested on: IGROV1 ovarian
SF-268 CNS = tested on: SF-268 CNS
A549 NSCLC = tested on: A549 NSCLC
A498 renal = tested on: A498 renal
MCF7 breast = tested on: MCF7 breast
MDA-MB-435 = tested on: MDA-MB-435
MDA-MB-231 breast = tested on: MDA-MB-231 breast
BT-549 breast = tested on: BT-549 breast
SNB-19 CNS = tested on: SNB-19 CNS
DU-145 prostate = tested on: DU-145 prostate
SNB-75 CNS = tested on: SNB-75 CNS
K-562 leukemia = tested on: K-562 leukemia
RXF 393 renal = tested on: RXF 393 renal
MALME-3M melanoma = tested on: MALME-3M melanoma
SW-620 colon = tested on: SW-620 colon
CAKI-1 renal = tested on: CAKI-1 renal
OVCAR-8 ovarian = tested on: OVCAR-8 ovarian
HCT-116 colon = tested on: HCT-116 colon
ACHN renal = tested on: ACHN renal
SK-MEL-2 melanoma = tested on: SK-MEL-2 melanoma
TK-10 renal = tested on: TK-10 renal
SK-MEL-28 melanoma = tested on: SK-MEL-28 melanoma
SR leukemia = tested on: SR leukemia
NCI-H522 lung = tested on: NCI-H522 lung

With `O=c1c(Br)c(-c2ccccc2)[nH]c2ccccc12` as the molecule, how does the GI50 (EKVX NSCLC) read?
The GI50 was 41.5 µM.

What about the TGI (EKVX NSCLC) of the same molecule?
Its TGI is > 100 µM.

What about the GI50 (PC-3 prostate) of the same molecule?
The GI50 was 23.6 µM.

And the TGI (PC-3 prostate)?
Its TGI is > 78.3 µM.

And the TGI (HT29 colon)?
Its TGI is > 100 µM.

What about the TGI (HL-60(TB) leukemia) of the same molecule?
The TGI was 56.6 µM.

And the TGI (SK-OV-3 ovarian)?
The TGI was > 100 µM.

And the GI50 (NCI-H226 lung)?
Its GI50 is 37.1 µM.

What about the TGI (NCI-H226 lung) of the same molecule?
Its TGI is > 100 µM.

What about the GI50 (T-47D breast) of the same molecule?
The GI50 was 36.4 µM.

What about the TGI (T-47D breast) of the same molecule?
Its TGI is > 100 µM.

And the TGI (M14 melanoma)?
Its TGI is > 100 µM.

And the TGI (UACC-62 melanoma)?
Its TGI is > 100 µM.

What about the TGI (UO-31 renal) of the same molecule?
Its TGI is 6.58 µM.

And the GI50 (SN12C renal)?
Its GI50 is > 100 µM.

And the TGI (SN12C renal)?
Its TGI is > 100 µM.

What about the TGI (U251 CNS) of the same molecule?
The TGI was > 100 µM.

What about the TGI (RPMI-8226 leukemia) of the same molecule?
Its TGI is > 100 µM.

What about the TGI (OVCAR-3 ovarian) of the same molecule?
Its TGI is > 100 µM.

And the GI50 (NCI-H460 lung)?
Its GI50 is 3.54 µM.

What about the TGI (NCI-H460 lung) of the same molecule?
The TGI was > 100 µM.

And the GI50 (SK-MEL-5 melanoma)?
Its GI50 is 13.6 µM.

What about the TGI (SK-MEL-5 melanoma) of the same molecule?
Its TGI is 29.9 µM.

What about the TGI (SF-539 CNS) of the same molecule?
Its TGI is > 100 µM.

And the TGI (HS 578T breast)?
Its TGI is > 100 µM.

What about the TGI (COLO 205 colon) of the same molecule?
The TGI was > 100 µM.

What about the GI50 (HOP-92 NSCLC) of the same molecule?
The GI50 was 19 µM.

What about the TGI (HOP-92 NSCLC) of the same molecule?
Its TGI is > 100 µM.

What about the GI50 (MOLT-4 leukemia) of the same molecule?
The GI50 was 20.8 µM.

And the TGI (MOLT-4 leukemia)?
Its TGI is > 75.6 µM.

What about the TGI (HOP-62 NSCLC) of the same molecule?
Its TGI is > 100 µM.

And the TGI (NCI/ADR-RES ovarian)?
Its TGI is > 100 µM.

What about the TGI (CCRF-CEM leukemia) of the same molecule?
The TGI was > 100 µM.

What about the GI50 (HCC-2998 colon) of the same molecule?
Its GI50 is > 100 µM.

And the TGI (HCC-2998 colon)?
The TGI was > 100 µM.

What about the TGI (MDA-N) of the same molecule?
Its TGI is > 85.4 µM.

What about the GI50 (SF-295 CNS) of the same molecule?
The GI50 was 32.9 µM.

And the TGI (SF-295 CNS)?
The TGI was > 100 µM.

And the GI50 (OVCAR-5 ovarian)?
Its GI50 is > 100 µM.

What about the TGI (OVCAR-5 ovarian) of the same molecule?
Its TGI is > 100 µM.

What about the TGI (UACC-257 melanoma) of the same molecule?
The TGI was 98 µM.

What about the TGI (NCI-H23 lung) of the same molecule?
Its TGI is > 100 µM.

And the TGI (LOX IMVI melanoma)?
Its TGI is > 100 µM.

What about the GI50 (KM12 colon) of the same molecule?
The GI50 was 5.63 µM.

And the TGI (KM12 colon)?
Its TGI is 63.8 µM.

What about the TGI (OVCAR-4 ovarian) of the same molecule?
Its TGI is > 100 µM.

And the TGI (HCT-15 colon)?
The TGI was > 100 µM.

What about the GI50 (IGROV1 ovarian) of the same molecule?
Its GI50 is > 89.4 µM.

And the TGI (IGROV1 ovarian)?
The TGI was > 100 µM.

And the GI50 (SF-268 CNS)?
The GI50 was > 100 µM.

And the TGI (SF-268 CNS)?
The TGI was > 100 µM.

And the GI50 (A549 NSCLC)?
The GI50 was 0.168 µM.

And the TGI (A549 NSCLC)?
Its TGI is 1.12 µM.

And the GI50 (A498 renal)?
The GI50 was 31.6 µM.

And the TGI (A498 renal)?
Its TGI is > 100 µM.

And the TGI (MCF7 breast)?
Its TGI is > 100 µM.

And the TGI (MDA-MB-435)?
The TGI was > 100 µM.

What about the TGI (MDA-MB-231 breast) of the same molecule?
The TGI was 11.8 µM.

And the TGI (BT-549 breast)?
Its TGI is > 100 µM.

And the GI50 (SNB-19 CNS)?
Its GI50 is > 100 µM.

And the TGI (SNB-19 CNS)?
Its TGI is > 100 µM.

And the TGI (DU-145 prostate)?
The TGI was > 100 µM.

And the GI50 (SNB-75 CNS)?
Its GI50 is 63.1 µM.

And the TGI (SNB-75 CNS)?
Its TGI is > 100 µM.

And the GI50 (K-562 leukemia)?
The GI50 was 28.9 µM.

And the TGI (K-562 leukemia)?
Its TGI is > 100 µM.

What about the TGI (RXF 393 renal) of the same molecule?
Its TGI is > 100 µM.

What about the TGI (MALME-3M melanoma) of the same molecule?
Its TGI is > 100 µM.

And the TGI (SW-620 colon)?
Its TGI is > 100 µM.

And the GI50 (CAKI-1 renal)?
Its GI50 is 0.066 µM.

And the TGI (CAKI-1 renal)?
Its TGI is 0.892 µM.

What about the TGI (OVCAR-8 ovarian) of the same molecule?
The TGI was > 100 µM.

And the TGI (HCT-116 colon)?
The TGI was > 100 µM.

And the TGI (ACHN renal)?
The TGI was > 100 µM.

And the GI50 (SK-MEL-2 melanoma)?
Its GI50 is > 100 µM.

And the TGI (SK-MEL-2 melanoma)?
The TGI was > 100 µM.

And the TGI (TK-10 renal)?
The TGI was > 100 µM.

And the TGI (SK-MEL-28 melanoma)?
Its TGI is > 100 µM.

And the TGI (SR leukemia)?
The TGI was > 100 µM.

What about the GI50 (NCI-H522 lung) of the same molecule?
Its GI50 is > 100 µM.

And the TGI (NCI-H522 lung)?
Its TGI is > 100 µM.

What does the source list for `O=C(OC1C=C=CS(=O)(=O)CC#C/C=C\1)c1cnc2ccccc2n1` (centres undefined)?
TGI (EKVX NSCLC): > 100 µM; TGI (PC-3 prostate): > 100 µM; TGI (HT29 colon): > 100 µM; TGI (HL-60(TB) leukemia): > 100 µM; TGI (SK-OV-3 ovarian): > 100 µM; TGI (NCI-H226 lung): > 100 µM; TGI (T-47D breast): > 100 µM; TGI (M14 melanoma): > 100 µM; TGI (UACC-62 melanoma): > 100 µM; TGI (UO-31 renal): > 100 µM; TGI (SN12C renal): > 100 µM; TGI (U251 CNS): > 100 µM; TGI (RPMI-8226 leukemia): > 100 µM; TGI (OVCAR-3 ovarian): > 100 µM; TGI (NCI-H460 lung): > 100 µM; TGI (SK-MEL-5 melanoma): > 100 µM; TGI (SF-539 CNS): > 100 µM; TGI (HS 578T breast): > 100 µM; TGI (COLO 205 colon): > 100 µM; TGI (HOP-92 NSCLC): 90.1 µM; TGI (MOLT-4 leukemia): > 100 µM; TGI (HOP-62 NSCLC): > 100 µM; TGI (NCI/ADR-RES ovarian): > 100 µM; TGI (CCRF-CEM leukemia): > 100 µM; TGI (HCC-2998 colon): > 100 µM; TGI (MDA-N): > 100 µM; TGI (SF-295 CNS): > 100 µM; TGI (OVCAR-5 ovarian): > 100 µM; TGI (UACC-257 melanoma): > 100 µM; TGI (NCI-H23 lung): > 100 µM; TGI (LOX IMVI melanoma): > 100 µM; TGI (KM12 colon): > 100 µM; TGI (OVCAR-4 ovarian): > 100 µM; TGI (HCT-15 colon): > 100 µM; TGI (IGROV1 ovarian): > 100 µM; TGI (SF-268 CNS): > 100 µM; TGI (A549 NSCLC): > 100 µM; TGI (A498 renal): > 100 µM; TGI (MCF7 breast): > 100 µM; TGI (MDA-MB-435): > 100 µM; TGI (MDA-MB-231 breast): > 100 µM; TGI (BT-549 breast): > 100 µM; TGI (SNB-19 CNS): > 100 µM; TGI (DU-145 prostate): > 100 µM; TGI (SNB-75 CNS): > 100 µM; TGI (K-562 leukemia): > 100 µM; TGI (RXF 393 renal): > 100 µM; TGI (MALME-3M melanoma): > 100 µM; TGI (SW-620 colon): > 100 µM; TGI (CAKI-1 renal): > 100 µM; TGI (OVCAR-8 ovarian): > 100 µM; TGI (HCT-116 colon): > 100 µM; TGI (ACHN renal): > 100 µM; TGI (SK-MEL-2 melanoma): > 100 µM; TGI (TK-10 renal): > 100 µM; TGI (SK-MEL-28 melanoma): > 100 µM; TGI (SR leukemia): > 100 µM; TGI (NCI-H522 lung): 51.6 µM

Source: PubChem BioAssay (NCI)
